From the supplement of paper PMC10307832

Tests used:
Assay in all cases: relative viability (nuclei count vs DMSO), 5 days (fraction); higher = more cells survive
[1] = tested on: 201T
How it was run: (§1)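 The day after seeding in 1536-well plates, lung cancer cell lines were treated by pin tool with a single drug, or with a fixed anchor-drug dose together with five library-drug doses (not always all listed) in √10 steps. After 5 days, a combined fix-and-stain solution (final 0.05% Triton X-100, 1% formaldehyde, 1 ug/ml Hoechst) was added. Nuclei counted on 4× images gave relative viability as treated counts over vehicle counts, reported as the median of duplicate plates.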

[2] = tested on: BEN
How it was run: as §1

[3] = tested on: EPLC-272H
How it was run: as §1

[4] = tested on: HCC-15
How it was run: as §1

[5] = tested on: HCC-78
How it was run: as §1

[6] = tested on: LCLC-97TM1
How it was run: as §1

[7] = tested on: LU99A
How it was run: as §1

[8] = tested on: NCI-H1355
How it was run: as §1

[9] = tested on: NCI-H2009
How it was run: as §1

[10] = tested on: NCI-H2085
How it was run: as §1

[11] = tested on: NCI-H2126
How it was run: as §1

[12] = tested on: NCI-H2228
How it was run: as §1

[13] = tested on: NCI-H23
How it was run: as §1

[14] = tested on: NCI-H2405
How it was run: as §1

[15] = tested on: NCI-H322M
How it was run: as §1

[16] = tested on: NCI-H460
How it was run: as §1

[17] = tested on: NCI-H647
How it was run: as §1

[18] = tested on: NCI-H650
How it was run: as §1

[19] = tested on: NCI-H661
How it was run: as §1

[20] = tested on: NCI-H838
How it was run: as §1

[21] = tested on: PC-14
How it was run: as §1

SMILES: Cc1cn(-c2cc(NC(=O)c3ccc(C)c(Nc4nccc(-c5cccnc5)n4)c3)cc(C(F)(F)F)c2)cn1 [Nilotinib] + CC(C)C[C@H](NC(=O)[C@H](Cc1ccccc1)NC(=O)c1cnccn1)B(O)O [Bortezomib] (partner 0.002 µM)
- relative viability ([1]; first compound 0.001 µM): 1.12
- relative viability ([1]; first compound 0.003162 µM): 1.09
- relative viability ([1]; first compound 0.01 µM): 1.08
- relative viability ([1]; first compound 0.1 µM): 1.11
- relative viability ([2]; first compound 0.001 µM): 0.782
- relative viability ([2]; first compound 0.003162 µM): 0.843
- relative viability ([2]; first compound 0.01 µM): 0.788
- relative viability ([2]; first compound 0.1 µM): 0.721
- relative viability ([3]; first compound 0.001 µM): 1.06
- relative viability ([3]; first compound 0.003162 µM): 1.21
- relative viability ([3]; first compound 0.01 µM): 0.863
- relative viability ([3]; first compound 0.03162 µM): 0.72
- relative viability ([3]; first compound 0.1 µM): 0.429
- relative viability ([4]; first compound 0.001 µM): 0.92
- relative viability ([4]; first compound 0.003162 µM): 1.41
- relative viability ([4]; first compound 0.01 µM): 1.33
- relative viability ([4]; first compound 0.03162 µM): 0.855
- relative viability ([4]; first compound 0.1 µM): 0.629
- relative viability ([5]; first compound 0.001 µM): 0.433
- relative viability ([5]; first compound 0.003162 µM): 0.514
- relative viability ([5]; first compound 0.01 µM): 0.654
- relative viability ([5]; first compound 0.03162 µM): 0.55
- relative viability ([5]; first compound 0.1 µM): 0.518
- relative viability ([6]; first compound 0.001 µM): 0.454
- relative viability ([6]; first compound 0.003162 µM): 0.158
- relative viability ([6]; first compound 0.01 µM): 0.946
- relative viability ([6]; first compound 0.03162 µM): 0.295
- relative viability ([6]; first compound 0.1 µM): 0.511
- relative viability ([7]; first compound 0.001 µM): 0.891
- relative viability ([7]; first compound 0.003162 µM): 1.1
- relative viability ([7]; first compound 0.01 µM): 1.39
- relative viability ([7]; first compound 0.03162 µM): 1.19
- relative viability ([7]; first compound 0.1 µM): 0.371
- relative viability ([8]; first compound 0.001 µM): 1.09
- relative viability ([8]; first compound 0.003162 µM): 1.52
- relative viability ([8]; first compound 0.01 µM): 1.28
- relative viability ([8]; first compound 0.03162 µM): 1.15
- relative viability ([8]; first compound 0.1 µM): 0.639
- relative viability ([9]; first compound 0.001 µM): 0.937
- relative viability ([9]; first compound 0.003162 µM): 1.14
- relative viability ([9]; first compound 0.01 µM): 1.16
- relative viability ([9]; first compound 0.03162 µM): 1.06
- relative viability ([9]; first compound 0.1 µM): 0.218
- relative viability ([10]; first compound 0.001 µM): 1.11
- relative viability ([10]; first compound 0.003162 µM): 1.11
- relative viability ([10]; first compound 0.01 µM): 1.27
- relative viability ([10]; first compound 0.03162 µM): 0.816
- relative viability ([10]; first compound 0.1 µM): 0.725
- relative viability ([11]; first compound 0.001 µM): 1.12
- relative viability ([11]; first compound 0.003162 µM): 1.18
- relative viability ([11]; first compound 0.01 µM): 1.08
- relative viability ([11]; first compound 0.03162 µM): 1.08
- relative viability ([11]; first compound 0.1 µM): 0.624
- relative viability ([12]; first compound 0.001 µM): 1.09
- relative viability ([12]; first compound 0.003162 µM): 1.23
- relative viability ([12]; first compound 0.01 µM): 1.21
- relative viability ([12]; first compound 0.03162 µM): 0.641
- relative viability ([12]; first compound 0.1 µM): 0.422
- relative viability ([13]; first compound 0.001 µM): 1.07
- relative viability ([13]; first compound 0.003162 µM): 1.37
- relative viability ([13]; first compound 0.01 µM): 1.4
- relative viability ([13]; first compound 0.03162 µM): 0.73
- relative viability ([13]; first compound 0.1 µM): 0.775
- relative viability ([14]; first compound 0.001 µM): 0.995
- relative viability ([14]; first compound 0.01 µM): 1.07
- relative viability ([14]; first compound 0.03162 µM): 0.762
- relative viability ([14]; first compound 0.1 µM): 0.553
- relative viability ([15]; first compound 0.001 µM): 1.27
- relative viability ([15]; first compound 0.003162 µM): 1.47
- relative viability ([15]; first compound 0.03162 µM): 1.18
- relative viability ([15]; first compound 0.1 µM): 1.39
- relative viability ([16]; first compound 0.001 µM): 0.689
- relative viability ([16]; first compound 0.03162 µM): 0.627
- relative viability ([16]; first compound 0.1 µM): 0.866
- relative viability ([17]; first compound 0.001 µM): 0.79
- relative viability ([17]; first compound 0.003162 µM): 1.52
- relative viability ([17]; first compound 0.03162 µM): 0.57
- relative viability ([17]; first compound 0.1 µM): 0.951
- relative viability ([18]; first compound 0.001 µM): 0.754
- relative viability ([18]; first compound 0.003162 µM): 0.76
- relative viability ([18]; first compound 0.01 µM): 0.923
- relative viability ([18]; first compound 0.03162 µM): 0.794
- relative viability ([18]; first compound 0.1 µM): 0.714
- relative viability ([19]; first compound 0.001 µM): 0.752
- relative viability ([19]; first compound 0.003162 µM): 0.831
- relative viability ([19]; first compound 0.01 µM): 1.02
- relative viability ([19]; first compound 0.03162 µM): 0.642
- relative viability ([19]; first compound 0.1 µM): 0.815
- relative viability ([20]; first compound 0.001 µM): 0.867
- relative viability ([20]; first compound 0.003162 µM): 0.731
- relative viability ([20]; first compound 0.01 µM): 0.976
- relative viability ([20]; first compound 0.03162 µM): 0.673
- relative viability ([20]; first compound 0.1 µM): 0.709
- relative viability ([21]; first compound 0.003162 µM): 1.05
- relative viability ([21]; first compound 0.01 µM): 1.02
- relative viability ([21]; first compound 0.03162 µM): 0.797
- relative viability ([21]; first compound 0.1 µM): 0.867
